These are literature values, as cited in patent US20240197632A1 (VETERINARY PHARMACY CORPORATION, priority 2022, published 2024).

For `CC(C)Cc1ccc(C(C)C(=O)O)cc1` (stereo not shown) [Ibuprofen, 2-(4-Isobutylphenyl)propanoic acid], the “general solubility property in water” value was 0.0021 % wt/vol.
